Data taken from patent US10253060B2, “Terpenoid derivatives” (Daiichi Sankyo Company, Limited, priority 2013, dated 2019).

Key:
[1] = tested on: Hmox1 gene; assay: Effect of inducing Nrf2 target gene (in vitro): Hmox1 gene expression in ARPE-19 cells, real-time quantitative PCR; assay type: cell-based, human; conditions: for Hmox1 gene expression level (relative value): approx. 6 hours, 0 nM defined as 1.0, mean ± SD, 3 wells; for concentration at which the expression level of the Hmox1 gene was increased 2-fold / concentration at which the expression level of the Hmox1 gene was increased 5-fold: analysed with Prism
Procedure: The Hmox1 gene was used as the Nrf2 target gene.
The expression level of the Hmox1 gene induced by the addition of a test compound to ARPE-19 cells (human retinal pigment epithelium cell line, ATCC, catalog No. CRL-2302) was measured to examine the effect of inducing the Hmox1 gene by the test compound. The test compound was terpenoid derivative B of the present invention obtained in Example 1 and CDDO-Me as Comparative Example.
The ARPE-19 cells were cultured (5% CO2, 37° C.) using a DMEM/F12 (Life Technologies Japan Ltd., catalog No. 11330-032) mixed medium containing 10% inactivated FBS. The medium contained 100 units/mL (final concentration) penicillin and 100 μg/mL (final concentration) streptomycin.
The ARPE-19 cells were seeded at 60000 cells/well in a 24-well plate. The amount of the medium was 500 μL. Approximately 24 hours later, the medium was replaced with a medium containing terpenoid derivative B of the present invention obtained in Example 1 or CDDO-Me, and the culture was continued. Approximately 6 hours later, mRNA was collected from the ARPE-19 cells using an extraction kit (manufactured by Qiagen N.V., RNeasy Mini Kit, catalog No. 74106). From the obtained mRNA, cDNA was prepared using a cDNA synthesis kit (manufactured by GE Healthcare Life Sciences, First-Strand cDNA Synthesis Kit). The obtained cDNA was amplified using a reagent (manufactured by Applied Biosystems, Inc., TaqMan(R) Gene Expression Master Mix (catalog No. 4369016)) and a probe, and subjected to real-time quantitative PCR (Real-time PCR HT7900 manufactured by Applied Biosystems, Inc. was used).
When the concentration of the test compound was 0 nM, the expression level of the Hmox1 gene was defined as 1.0±0.0. The expression level of the Hmox1 gene at each concentration of the test compound was indicated as a relative value. Each group consisted of 3 wells and was indicated by a mean and standard deviation.
The activity ratios of terpenoid derivative B of the present invention to CDDO-Me were 2747 times and 92 times.

[2] = tested on: ARPE-19 cells; assay: Cytotoxicity, LDH-Cytotoxic Test in ARPE-19 cells; assay type: cell-based, human; conditions: 10 μM, approx. 16 hours, 3 wells
Procedure: ARPE-19 cells (human retinal pigment epithelium cell line, ATCC, catalog No. CRL-2302) were cultured (5% CO2, 37° C.). A DMEM/F12 (Life Technologies Japan Ltd., catalog No. 11330-032) mixed medium containing 10% inactivated FBS was used. The medium contained 100 units/mL (final concentration) penicillin and 100 μg/[…] (final concentration) streptomycin.
The ARPE-19 cells were seeded at 5000 cells/well in a 96-well plate. The amount of the medium was 50 μL. Approximately 3 hours later, 50 μL of a medium containing CDDO-Me or each of terpenoid derivatives A to H was added thereto, followed by culture for approximately 16 hours. Then, cytotoxicity was evaluated using LDH-Cytotoxic Test (Wako Pure Chemical Industries, Ltd., catalog No. 299-50601). The evaluation method followed the attached document. Each group consisted of 3 wells and was indicated as cytotoxicity at the concentration of 10 μM. The means thereof were 43% for CDDO-Me, 2% for terpenoid derivative A, 2% for terpenoid derivative B, 2% for terpenoid derivative C, 1% for terpenoid derivative D, 2% for terpenoid derivative E, 3% for terpenoid derivative F, 3% for terpenoid derivative G, and 1% for terpenoid derivative H. Terpenoid derivatives A to H were low in cytotoxicity as compared with CDDO-Me.

[3] = tested on: NQO1; assay: NQO1 assay in Hepa1c1c7 cells; assay type: cell-based, mouse; conditions: approx. 48 hours, mean of 3 wells
Procedure: Hepa1c1c7 cells (mouse hepatic cell line, ATCC, catalog No. CRL-2026) were cultured (5% CO2, 37° C.). A DMEM (Life Technologies Japan Ltd., catalog No. 11965-092) medium also containing 10% inactivated FBS was used. The medium contained 100 units/mL (final concentration) penicillin and 100 μg/[…] (final concentration) streptomycin. The NQO1 assay was conducted according to previous reports (Anal Biochem 1998; 169: 328-; and Methods Enzymol 2004; 382: 243-).
The Hepa1c1c7 cells were seeded at 10000 cells/well in a 96-well plate. The amount of the medium was 100 μL. Approximately 24 hours later, the medium was replaced with a medium containing CDDO-Me or each of terpenoid derivatives A to G, followed by further culture for approximately 48 hours. A lysis solution (a solution containing 2 mM EDTA and 0.8% digitonin), a reaction solution (a solution containing 0.025 M of tris-HCl, 0.067% of albumin, 0.01% of Tween-20, 2 U/mL of glucose-6-phosphate dehydrogenase, 5 μM of flavin adenine dinucleotide, 1 […], 30 μM of nicotinamide adenine dinucleotide phosphate, 0.03% of 3-(4,5-dimethyl-2-thiazolyl)-2,5-diphenyltetrazolium bromide (MTT), and 50 μM of menadione), and a stop solution (a solution containing 0.3 mM dicumarol and 5 mM potassium dihydrogen phosphate, pH 7.4) were prepared. After removal of the medium, 50 μL of the lysis solution was added thereto, and the mixture was left standing at 37° C. for 10 minutes. The reaction mixture was further shaken at room temperature for 10 minutes.
Two hundred μL of the solution was added thereto, and the mixture was left standing at room temperature for 5 minutes. Fifty μL of the stop solution was added thereto, and the absorbance at 490 nm was measured.
The test results were analyzed using Prism (GraphPad Software, Inc., Ver. 5) to calculate the CD value of the concentration at which the activity of NQO1 was increased 2-fold. Each group consisted of 3 wells and indicated as a mean of CD values.

| SMILES | activity ratio to CDDO-Me (2-fold Hmox1 increase concentration) [1] | activity ratio to CDDO-Me (5-fold Hmox1 increase concentration) [1] | Hmox1 gene expression level (relative value) ([1]; 0.00001 nM test compound) | Hmox1 gene expression level (relative value) ([1]; 0.001 nM test compound) | Hmox1 gene expression level (relative value) ([1]; 0.03 nM test compound) | Hmox1 gene expression level (relative value) ([1]; 0.3 nM test compound) | Hmox1 gene expression level (relative value) ([1]; 3 nM test compound) | Hmox1 gene expression level (relative value) ([1]; 30 nM test compound) | concentration at which the expression level of the Hmox1 gene was increased 2-fold [1] | concentration at which the expression level of the Hmox1 gene was increased 5-fold [1] | cytotoxicity (LDH-Cytotoxic Test), mean [2] | CD value (concentration at which the activity of NQO1 was increased 2-fold) [3] |
| --- | --- | --- | --- | --- | --- | --- | --- | --- | --- | --- | --- | --- |
| COC(=O)[C@@]12CC[C@]3(C)[C@H](C(=O)C=C4[C@@]5(C)[C@H]6O[C@@]6(C#N)C(=O)C(C)(C)[C@@H]5CC[C@]43C)[C@@H]1CC(C)(C)[C@@H](O)C2 [terpenoid derivative B] | 2747 times | 92 times | 1.3 ± 0.0 | 0.9 ± 0.1 | 5.4 ± 0.1 | 6.1 ± 0.5 | 10.4 ± 1.5 | 20.8 ± 1.9 | 0.00091 nM | 0.12 nM | 2% | 0.3 nM |
| COC(=O)[C@]12CCC(C)(C)C[C@H]1[C@H]1C(=O)C=C3[C@@]4(C)C=C(C#N)C(=O)C(C)(C)[C@@H]4CC[C@@]3(C)[C@]1(C)CC2 [CDDO-Me, methyl 2-cyano-3,12-dioxooleana-1,9-dien-28-oate, reference compound] | – | – | 1.1 ± 0.0 | 1.0 ± 0.1 | 1.4 ± 0.0 | 1.4 ± 0.1 | 2.1 ± 0.3 | 12.2 ± 2.6 | 2.5 nM | 11 nM | 43% | 1.0 nM |
